The source of these data is patent US6576656B1, “Oxindole derivative” (Sumitomo Pharmaceuticals Co., Ltd., priority 1998, dated 2003).

One experiment relates to rat pituitary cells. Nature of the experiment: growth hormone releasing activity from rat pituitary cells in vitro (GH measured by RIA). The experiment is classed as cell-based. The settings on record: read-out: EC50 (GH releasing efficacy). As for the experimental part: Compounds of the present invention were evaluated for their growth hormone releasing activity from rat pituitary cells in vitro in accordance with the method described in the literature (R. G. Smith et al., Science, 260, 1640 (1993)). Pituitary glands removed from 7-week-old Wistar/ST male rats were washed with HBSS (Hank's balanced salt solution) three times and minced into small pieces (ca. 1 mm^2) using a pair of scissors. […] An enzyme solution (0.1 mL per a pituitary gland) was added and the cell dispersion was carried out in a water bath at 37° C. for ca 20-30 min, during which time the digested mixture was mixed by successive up-take and down-take of the suspension using a pipette, every 5 minutes. The resulting cell suspension was centrifuged at 1200 rpm for 2-3 min at room temperature and the supernatant fluid was discarded. A cultured medium was added and the resulting cell suspension was again centrifuged at 1200 rpm for 2-3 min at room temperature and the supernatant fluid was discarded. This procedure was repeated another 2 times. […] The culture medium was discarded and an assay medium (0.1 mL) was added. The incubation was continued for 1.5 h and the cells were washed with the assay medium. […] The supernatant fluid was recovered and the GH content present was measured by RIA (radioimmunoassay). An aliquot of the solution was diluted to 0.05 mL with a RIA buffer which consisted of PBS (pH 7.3) containing 1% BSA, 0.1% NaN3 and 25 mM EDTA. […] Cell membrane fractions containing protein A were added and the mixture was allowed to stand for 20 min and centrifuged. The supernatant fluid was removed and the precipitates were washed with the RIA buffer. The ^125I content in the precipitates was measured. The GH concentration in the sample was calculated from the standard curve made by using the standard GH sample. The EC50 values of the test compounds were determined using recurrent calculation from the following equation, where X is the concentration of the test compound, Y is the GH concentration at the given assay, and B is the EC50 value. C means recurrently calculated GH concentration in the absence of the test compound and A+C means recurrently calculated GH concentration when a maximum amount of the test compound is present. […] The culture medium used here consisted of DMEM (Dulbecco's Modified Eagle's Medium) containing 10% horse serum, 2.5% fetal bovine serum, 1% nonessential amino acids, 0.01% streptomycin and penicillin (100 IU/mL). The cultured medium described above was adjusted to pH 7.3 by adding a 25 mM HEPES buffer and the resulting solution was used as the assay medium. […] The resulting mixture was used as the test compound solution. […]

A short description of experiment [1]: increase in the weight of rats after oral administration for 9 days. Type of experiment: in vivo, rat. The following applies: 10 mg/kg/day×2 orally for 9 days, 11-week-old F 344/N rats (6/group); p<0.01; distilled water group 13.5±2.3 g. As for the experimental part:
The compound of Example 74 (10 mg/kg/day×2) were administered orally to 11-week-old F 344/N rats (6/group) for 9 days and increase in the weight of each rat was measured.

SMILES strings stand for the structures. Where two headings read alike, the source gives them in different places.

Usually EC50 stands for the concentration at which the effect is half-maximal. Turning to `CCN(CC)CCN1C(=O)C(O)(c2ccc(Cl)cc2Cl)c2c1cc(C(N)=O)cc2C(F)(F)F` (centres unmarked) [Example 91, 1-(2-Diethylaminoethyl)-4-trifuoromethyl-6-carbamoyl-3-hydroxy-3-(2,4-dichlorophenyl)oxindole], the EC50 in the experiment with rat pituitary cells (cultured pituitary cells of 7-week-old Wistar/ST male rats, 15 min at 37° C., GH by RIA) was found to be 1.2 nM.

In the case of `CCN(CC)CCN1C(=O)C(O)(c2ccccc2F)c2c(Br)cccc21` (centres unmarked) [Example 21, 4-Bromo-1-(2-diethylaminoethyl)-3-hydroxy-3-(2-fluorophenyl)oxindole], in the experiment on rat pituitary cells (Rattus norvegicus, 0.25 h), the EC50 was found to be 4 nM.

As for `CCN(CC)CCN1C(=O)C(O)(c2ccccc2Cl)c2c1cc(C(N)=O)cc2C(F)(F)F` (single isomer, unassigned; (+)) [Example 74, (+)-1-(2-Diethylaminoethyl)-4-trifluoromethyl-6-carbamoyl-3-hydroxy-3-(2-chlorophenyl)oxindole], the “increase in the weight” value in experiment [1] was determined as 19.5 ± 2.1 g. Further, in the experiment with rat pituitary cells (Rattus norvegicus, 0.25 h), the EC50 was 0.5 nM.

As to `CCN(CC)CCN1C(=O)C(O)(c2ccccc2Cl)c2c1cc(C#CCCC(=O)N1CCOCC1)cc2C(F)(F)F` (centres unmarked) [Example 70, 1-(2-Diethylaminoethyl)-4-trifluoromethyl-6-(4-morpholinocarbonyl-1-butynyl)-3-hydroxy-3-(2-chlorophenyl)oxindole], the EC50 with rat pituitary cells (Rattus norvegicus, 0.25 h) amounted to 5 nM.
